Several values for one entry are separate records, joined by “and”; a condition that tells them apart may be missing. Identical values can stand only once.
Experiments:
Format in all cases: cell-based
[1] = system: human SCNT blastocysts; test: Derivation of human NTK-ESCs from KDM4A-assisted SCNT blastocysts
Experimental: All expanded blastocysts were treated with acid Tyrode solution to remove the zona pellucida, then the entire blastocysts (without removing trophectoderm) were plated onto mitotically-inactivated mouse fibroblasts (MEFs, Global Stem Inc.) in knockout-DMEM supplemented with Knockout Serum Replacement (10% SR, Invitrogen), FBS (10% Hyclone), bFGF (30 ng/ml), human LIF (2000 units/ml, Sigma-Aldrich), and ROCK inhibitor (1 uM, Sigma-Aldrich). The derivation medium was not changed for the next 3 days, then 1/2 medium was replaced with fresh medium without the ROCK inhibitor daily as previously described (Chung et al., 2008). After 3 passages, the amount of FBS was reduced to 2%, replacing it with SR. After 5 passages, the ES cells were cultured in DMEM/F12 supplemented with FGF (8 ng/ml, Invitrogen), SR (18%, Invitrogen), and FBS (2% Hyclone). After the 10 passages, the ES cells were maintained in DMEM/F12 supplemented with FGF (8 ng/ml) and 20% SR.

[2] = system: H3K9me3; test: Immunostaining of H3K9me3 in 1-cell mouse SCNT embryos after mRNA injection; conditions: 1-cell stage, 5 hours after mRNA injection
Experimental: Mouse somatic cell nuclear transfer was carried out as described previously (Matoba et al., 2014). Briefly, both recipient MII oocytes and donor cumulus cells were collected from adult BDF1 female mice through superovulation by injecting 7.5 IU of pregnant mare serum gonadotropin (PMSG; Millipore #367222) and 7.5 IU of human chorionic gonadotropin (hCG; Millipore #230734). Fifteen to seventeen hours after the hCG injection, cumulus-oocyte complexes (COCs) were collected from the oviducts and treated briefly with Hepes-buffered potassium simplex-optimized medium (KSOM) containing 300 U/ml bovine testicular hyaluronidase (Calbiochem #385931) to obtain dissociated MII oocytes and cumulus cells. Isolated MII oocytes were enucleated in Hepes-buffered KSOM medium containing 7.5 jig/ml of cytochalasin B (Calbiochem #250233) by using Piezo-driven micromanipulator (Primetech # PMM-150FU). The nuclei of donor cumulus cells were injected into the enucleated oocytes. After 1 h incubation in KSOM, reconstructed SCNT oocytes were activated by incubating in Ca-free KSOM containing 2.5 mM SrCl2 and 5 jig/ml cytochalasin B for 1 h, and further cultured in KSOM with cytochalasin B for 4 h. […] Preimplantation developmental rates were analyzed by Student's T-test. […]

[3] = system: mouse SCNT embryos; test: Preimplantation development of KDM4A-assisted mouse SCNT embryos; conditions: cumulus donor cells, mRNA injected at 5-6 hpa; for % blast per 2-cell ± SD: blastocyst stage
Experimental: B6D2F1/J (BDF1) mice were produced by crossing C57BL/6J females with DBA/2J males, and were used for the collection of both oocyte and somatic nuclear donor for SCNT. All animal experiments were approved by the Institutional Animal Care and Use Committee of Harvard Medical School.
In vitro transcription was performed as described previously (Matoba et al., 2014). Briefly, full length human KDM4A/JHDM3A cDNA was cloned into a pcDNA3.1 plasmid containing poly(A)83 at the 3′ end of cloning site. The catalytic defective mutant form of KDM4A (H188A) was generated using PrimeSTAR mutagenesis kit (TAKARA # R045A). mRNA was synthesized using the mMESSAGE mMACHINE T7 Ultra Kit (Life technologies # AM1345). The synthesized mRNA was dissolved in nuclease-free water. The concentration of mRNA was measured by NanoDrop ND-1000 spectrophotometer (NanoDrop Technologies). Aliquots of mRNA were stored at −80° C. until use.
Mouse somatic cell nuclear transfer was carried out as described previously (Matoba et al., 2014). Briefly, both recipient MII oocytes and donor cumulus cells were collected from adult BDF1 female mice through superovulation by injecting 7.5 IU of pregnant mare serum gonadotropin (PMSG; Millipore #367222) and 7.5 IU of human chorionic gonadotropin (hCG; Millipore #230734). Fifteen to seventeen hours after the hCG injection, cumulus-oocyte complexes (COCs) were collected from the oviducts and treated briefly with Hepes-buffered potassium simplex-optimized medium (KSOM) containing 300 U/ml bovine testicular hyaluronidase (Calbiochem #385931) to obtain dissociated MII oocytes and cumulus cells. Isolated MII oocytes were enucleated in Hepes-buffered KSOM medium containing 7.5 jig/ml of cytochalasin B (Calbiochem #250233) by using Piezo-driven micromanipulator (Primetech # PMM-150FU). The nuclei of donor cumulus cells were injected into the enucleated oocytes. After 1 h incubation in KSOM, reconstructed SCNT oocytes were activated by incubating in Ca-free KSOM containing 2.5 mM SrCl2 and 5 jig/ml cytochalasin B for 1 h, and further cultured in KSOM with cytochalasin B for 4 h. Activated SCNT embryos were washed 5 hrs after the onset of SrCl2 treatment (hours post activation, hpa) and cultured in KSOM in a humidified atmosphere with 5% CO2 at 37.8° C. The SCNT embryos were injected with ˜10 pl of water (control), 1500 ng/μ1 wild-type or mutant (H188A) human KDM4A mRNA at 5-6 hpa by using a Piezo-driven micromanipulator. Preimplantation developmental rates were analyzed by Student's T-test.

KDM4A mRNA: in vitro transcribed mRNA of full length human KDM4A/JHDM3A cDNA, an H3K9me3 demethylase (SEQ ID NO: 1)
stable NT-ESC lines derived ([1]; after five passages, from eight expanded blastocysts): four stable NT-ESC lines | expanded blastocysts attached to MEF feeder cells and initiated outgrowth ([1]; of eight expanded blastocysts): Seven out of the eight | H3K9me3 levels in the nucleus of mouse SCNT embryos [2]: greatly reduced H3K9me3 levels | % 4-cell per 2-cell ± SD [3]: 43.3 ± 7.6% | % cleaved per 1-cell ± SD [3]: 93.7 ± 2.7% | % morula per 2-cell ± SD [3]: 35.5 ± 13.5% | % blast per 2-cell ± SD [3]: 90.3% and 90% | % blast per 2-cell ± SD ([3]; listed as KDM4A): 23.7 ± 11.6% | % blast per 2-cell ± SD ([3]; listed as KDM4A WT): 90.3 ± 0.3 % | % 4-cell per 2-cell ± SD ([3]; listed as KDM4A WT): 96.8 ± 2.7 % | % cleaved per 1-cell ± SD ([3]; listed as KDM4A WT): 97.0 ± 5.2% | % morula per 2-cell ± SD ([3]; listed as KDM4A WT): 92.5 ± 3.6 %
